Measured values as given in PubChem BioAssay (NCI).
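Following 48 hours of exposure in 96-well plates, responses at five concentrations were used to interpolate endpoints linearly. GI50 is the concentration that inhibits growth by half. TGI marks complete inhibition of growth.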

Key:
Experiment in all cases: NCI tumour cell line growth inhibition, 48 h
A498 renal = tested on: A498 renal
A549 NSCLC = tested on: A549 NSCLC
ACHN renal = tested on: ACHN renal
BT-549 breast = tested on: BT-549 breast
CAKI-1 renal = tested on: CAKI-1 renal
COLO 205 colon = tested on: COLO 205 colon
DU-145 prostate = tested on: DU-145 prostate
EKVX NSCLC = tested on: EKVX NSCLC
HCC-2998 colon = tested on: HCC-2998 colon
HCT-116 colon = tested on: HCT-116 colon
HCT-15 colon = tested on: HCT-15 colon
HL-60(TB) leukemia = tested on: HL-60(TB) leukemia
HOP-62 NSCLC = tested on: HOP-62 NSCLC
HOP-92 NSCLC = tested on: HOP-92 NSCLC
HS 578T breast = tested on: HS 578T breast
HT29 colon = tested on: HT29 colon
IGROV1 ovarian = tested on: IGROV1 ovarian
K-562 leukemia = tested on: K-562 leukemia
KM12 colon = tested on: KM12 colon
LOX IMVI melanoma = tested on: LOX IMVI melanoma
M14 melanoma = tested on: M14 melanoma
MALME-3M melanoma = tested on: MALME-3M melanoma
MDA-MB-231 breast = tested on: MDA-MB-231 breast
MDA-MB-435 = tested on: MDA-MB-435
MOLT-4 leukemia = tested on: MOLT-4 leukemia
NCI-H226 lung = tested on: NCI-H226 lung
NCI-H23 lung = tested on: NCI-H23 lung
NCI-H460 lung = tested on: NCI-H460 lung
NCI-H522 lung = tested on: NCI-H522 lung
NCI/ADR-RES ovarian = tested on: NCI/ADR-RES ovarian
OVCAR-3 ovarian = tested on: OVCAR-3 ovarian
OVCAR-4 ovarian = tested on: OVCAR-4 ovarian
OVCAR-5 ovarian = tested on: OVCAR-5 ovarian
OVCAR-8 ovarian = tested on: OVCAR-8 ovarian
PC-3 prostate = tested on: PC-3 prostate
RPMI-8226 leukemia = tested on: RPMI-8226 leukemia
RXF 393 renal = tested on: RXF 393 renal
SF-268 CNS = tested on: SF-268 CNS
SF-295 CNS = tested on: SF-295 CNS
SF-539 CNS = tested on: SF-539 CNS
SK-MEL-2 melanoma = tested on: SK-MEL-2 melanoma
SK-MEL-28 melanoma = tested on: SK-MEL-28 melanoma
SK-MEL-5 melanoma = tested on: SK-MEL-5 melanoma
SK-OV-3 ovarian = tested on: SK-OV-3 ovarian
SN12C renal = tested on: SN12C renal
SNB-19 CNS = tested on: SNB-19 CNS
SNB-75 CNS = tested on: SNB-75 CNS
SR leukemia = tested on: SR leukemia
SW-620 colon = tested on: SW-620 colon
T-47D breast = tested on: T-47D breast
TK-10 renal = tested on: TK-10 renal
U251 CNS = tested on: U251 CNS
UACC-257 melanoma = tested on: UACC-257 melanoma
UACC-62 melanoma = tested on: UACC-62 melanoma
786-0 renal = tested on: 786-0 renal
MCF7 breast = tested on: MCF7 breast

Structure (SMILES): O=C(Nc1ccc(Cl)cc1)Nc1ccc(Oc2nncc3ccccc23)cc1
- GI50 (A498 renal): 1.5 µM
- TGI (A498 renal): 3.06 µM
- GI50 (A549 NSCLC): 2.81 µM
- TGI (A549 NSCLC): 11.5 µM
- GI50 (ACHN renal): 1.05 µM
- TGI (ACHN renal): 2.33 µM
- GI50 (BT-549 breast): 2.08 µM
- TGI (BT-549 breast): 7.43 µM
- GI50 (CAKI-1 renal): 2.72 µM
- TGI (CAKI-1 renal): 8.7 µM
- GI50 (COLO 205 colon): 1.18 µM
- TGI (COLO 205 colon): 2.92 µM
- GI50 (DU-145 prostate): 0.736 µM
- TGI (DU-145 prostate): 2.08 µM
- GI50 (EKVX NSCLC): 1.61 µM
- TGI (EKVX NSCLC): 4.5 µM
- GI50 (HCC-2998 colon): 1.84 µM
- TGI (HCC-2998 colon): 3.48 µM
- GI50 (HCT-116 colon): 0.326 µM
- TGI (HCT-116 colon): 1.2 µM
- GI50 (HCT-15 colon): 0.961 µM
- TGI (HCT-15 colon): 3.08 µM
- GI50 (HL-60(TB) leukemia): 1.08 µM
- TGI (HL-60(TB) leukemia): 13.4 µM
- GI50 (HOP-62 NSCLC): 1.09 µM
- TGI (HOP-62 NSCLC): 4.32 µM
- GI50 (HOP-92 NSCLC): 1.64 µM
- TGI (HOP-92 NSCLC): 4.38 µM
- GI50 (HS 578T breast): 0.696 µM
- TGI (HS 578T breast): 47 µM
- GI50 (HT29 colon): 0.465 µM
- TGI (HT29 colon): 2.39 µM
- GI50 (IGROV1 ovarian): 1.16 µM
- TGI (IGROV1 ovarian): 5 µM
- GI50 (K-562 leukemia): 0.376 µM
- TGI (K-562 leukemia): 10.9 µM
- GI50 (KM12 colon): 0.888 µM
- TGI (KM12 colon): 2.65 µM
- GI50 (LOX IMVI melanoma): 0.166 µM
- TGI (LOX IMVI melanoma): 0.455 µM
- GI50 (M14 melanoma): 1.12 µM
- TGI (M14 melanoma): 3.16 µM
- GI50 (MALME-3M melanoma): 0.448 µM
- TGI (MALME-3M melanoma): 2.31 µM
- GI50 (MDA-MB-231 breast): 0.399 µM
- TGI (MDA-MB-231 breast): 3.68 µM
- GI50 (MDA-MB-435): 0.29 µM
- TGI (MDA-MB-435): 1.07 µM
- GI50 (MOLT-4 leukemia): 0.376 µM
- TGI (MOLT-4 leukemia): > 100 µM
- GI50 (NCI-H226 lung): 0.623 µM
- TGI (NCI-H226 lung): 5.42 µM
- GI50 (NCI-H23 lung): 0.751 µM
- TGI (NCI-H23 lung): 2.87 µM
- GI50 (NCI-H460 lung): 2.79 µM
- TGI (NCI-H460 lung): 8.32 µM
- GI50 (NCI-H522 lung): 0.193 µM
- TGI (NCI-H522 lung): 0.419 µM
- GI50 (NCI/ADR-RES ovarian): 2.63 µM
- TGI (NCI/ADR-RES ovarian): > 100 µM
- GI50 (OVCAR-3 ovarian): 0.354 µM
- TGI (OVCAR-3 ovarian): 1.15 µM
- GI50 (OVCAR-4 ovarian): 0.753 µM
- TGI (OVCAR-4 ovarian): 3.49 µM
- GI50 (OVCAR-5 ovarian): 1.89 µM
- TGI (OVCAR-5 ovarian): 4.47 µM
- GI50 (OVCAR-8 ovarian): 1.1 µM
- TGI (OVCAR-8 ovarian): 13.6 µM
- GI50 (PC-3 prostate): 1.64 µM
- TGI (PC-3 prostate): 6.08 µM
- GI50 (RPMI-8226 leukemia): 0.488 µM
- TGI (RPMI-8226 leukemia): 4.58 µM
- GI50 (RXF 393 renal): 0.312 µM
- TGI (RXF 393 renal): 1.05 µM
- GI50 (SF-268 CNS): 1.35 µM
- TGI (SF-268 CNS): 7.21 µM
- GI50 (SF-295 CNS): 2.54 µM
- TGI (SF-295 CNS): 6.27 µM
- GI50 (SF-539 CNS): 0.28 µM
- TGI (SF-539 CNS): 1.13 µM
- GI50 (SK-MEL-2 melanoma): 1.57 µM
- TGI (SK-MEL-2 melanoma): 3.65 µM
- GI50 (SK-MEL-28 melanoma): 0.422 µM
- TGI (SK-MEL-28 melanoma): 1.65 µM
- GI50 (SK-MEL-5 melanoma): 1.2 µM
- TGI (SK-MEL-5 melanoma): 2.81 µM
- GI50 (SK-OV-3 ovarian): 1.74 µM
- TGI (SK-OV-3 ovarian): 5.48 µM
- GI50 (SN12C renal): 1.03 µM
- TGI (SN12C renal): 3.58 µM
- GI50 (SNB-19 CNS): 1.74 µM
- TGI (SNB-19 CNS): 4.79 µM
- GI50 (SNB-75 CNS): 0.451 µM
- TGI (SNB-75 CNS): 1.95 µM
- GI50 (SR leukemia): 0.401 µM
- TGI (SR leukemia): > 100 µM
- GI50 (SW-620 colon): 0.348 µM
- TGI (SW-620 colon): 1.6 µM
- GI50 (T-47D breast): 0.245 µM
- TGI (T-47D breast): 0.768 µM
- GI50 (TK-10 renal): 2.12 µM
- TGI (TK-10 renal): 4.28 µM
- GI50 (U251 CNS): 1.01 µM
- TGI (U251 CNS): 2.38 µM
- GI50 (UACC-257 melanoma): 1.5 µM
- TGI (UACC-257 melanoma): 4.04 µM
- GI50 (UACC-62 melanoma): 1.08 µM
- TGI (UACC-62 melanoma): 3.46 µM

Structure (SMILES): O=c1cc(-c2ccccc2)[nH]c2ccc(N3CCCCC3)cc12
- TGI (786-0 renal): 43.1 µM
- TGI (ACHN renal): > 100 µM
- TGI (BT-549 breast): > 100 µM
- TGI (CAKI-1 renal): > 100 µM
- TGI (COLO 205 colon): > 100 µM
- TGI (DU-145 prostate): > 30.3 µM
- TGI (EKVX NSCLC): > 100 µM
- TGI (HCC-2998 colon): > 22.5 µM
- TGI (HCT-15 colon): > 100 µM
- TGI (HL-60(TB) leukemia): < 0.028 µM
- TGI (HOP-62 NSCLC): 47.4 µM
- TGI (HOP-92 NSCLC): 53.6 µM
- TGI (HS 578T breast): > 100 µM
- TGI (IGROV1 ovarian): > 100 µM
- TGI (K-562 leukemia): > 100 µM
- TGI (KM12 colon): 0.0909 µM
- TGI (LOX IMVI melanoma): > 100 µM
- TGI (M14 melanoma): > 100 µM
- TGI (MALME-3M melanoma): > 100 µM
- TGI (MCF7 breast): > 67.9 µM
- TGI (MDA-MB-231 breast): > 100 µM
- TGI (MOLT-4 leukemia): > 100 µM
- TGI (NCI-H226 lung): 0.0706 µM
- TGI (NCI-H23 lung): 6.86 µM
- TGI (NCI-H460 lung): > 100 µM
- TGI (NCI-H522 lung): > 100 µM
- TGI (OVCAR-3 ovarian): 2.89 µM
- TGI (OVCAR-4 ovarian): > 100 µM
- TGI (OVCAR-5 ovarian): > 100 µM
- TGI (OVCAR-8 ovarian): > 44.9 µM
- TGI (PC-3 prostate): > 100 µM
- TGI (RPMI-8226 leukemia): > 100 µM
- TGI (SF-268 CNS): > 53.2 µM
- TGI (SF-295 CNS): 0.0474 µM
- TGI (SF-539 CNS): 0.549 µM
- TGI (SK-MEL-2 melanoma): > 100 µM
- TGI (SK-MEL-28 melanoma): > 100 µM
- TGI (SK-MEL-5 melanoma): 4.2 µM
- TGI (SK-OV-3 ovarian): > 59.7 µM
- TGI (SN12C renal): > 100 µM
- TGI (SNB-19 CNS): > 100 µM
- TGI (SR leukemia): > 100 µM
- TGI (SW-620 colon): > 100 µM
- TGI (T-47D breast): > 100 µM
- TGI (TK-10 renal): > 100 µM
- TGI (U251 CNS): > 45.9 µM
- TGI (UACC-257 melanoma): > 100 µM
- TGI (UACC-62 melanoma): > 100 µM
